Paper PMC9327782, “Benzoxazole derivatives as new VEGFR-2 inhibitors and apoptosis inducers: design, synthesis, in silico studies, and antiproliferative evaluation” (Journal of Enzyme Inhibition and Medicinal Chemistry, 2022)
Where two headings read alike, the source gives them in different places.

Columns and labels:
Type in all cases: cell-based, human
[1] = test system: MCF-7 cell line; assay: In vitro anti-proliferative MTT assay, MCF-7; conditions: Homo sapiens
Description: The cytotoxicity results were obtained as median growth inhibitory concentration (IC50).
MTT assay protocol. This method was applied in accordance with the comprehensive description in Supplementary data. […]
5 Raw data of cytotoxity and VEGFR -2 assay […]
Experimental of biological testing
1. In vitro anti-proliferative activity
MTT assay protocol was applied to assess the anti-proliferative activity of the synthesized compounds. Two human cancer cell lines (MCF-7 and HepG-2) and one normal cell line (WI-38) were used in this test. At first, the cell lines were cultured in RPMI -1640 medium with 10% fetal bovine serum. Antibiotics (100 units/ml penicillin and100 µg/ml streptomycin ) were added at 37 °C in a 5% CO2 incubator. The cell lines were seeded in a 96-well plate at a density of 1.0 x 10^4 cells / well at 37 °C for 24 h under 5% CO2. After incubation, the cells were treated with different […]
concentration of the synthesized compounds and incubated for 24 h. After 24 h of drug treatment, 20 µl of MTT solution at 5mg/ml was added and incubated for 4 h. Dimethyl sulfoxide (DMSO) in volume of 100 µl was added into each well to dissolve the purple formazan formed. The colorimetric assay was measured and recorded at absorbance of 570 nm using a plate reader (EXL 800, USA). The relative cell viability in percentage was calculated as (A570 of treated samples/A570 of untreated sample) X 100. […]

[2] = test system: HepG2 cells; assay: Flow cytometry apoptosis analysis (Annexin V/PI)
Protocol: In details, 32.45 and 2.86% for early and late apoptotic phases, respectively compared to control, (6.56%,5.34%,1.22%, respectively) (Figure 5 and Table 5).
Apoptotic effect was applied in accordance with the comprehensive description in Supplementary data[36]^,[37]
(§1) 4. Flow cytometry analysis for apoptosis
Flow cytometry cell apoptosis analysis was used to investigate the apoptotic effect of the synthesized compounds. HepG2 cells were treated with compound 12l (10.50 µM) for 24 h, collected by trypsin, centrifuged, washed two successive times with PBS, suspended in 500 μl binding buffer, and double stained with 5 μl Annexin V-FITC and 5 μl PI in the dark at room temperature for 15 min. The stained cells were measured using Epics XL-MCL™ Flow Cytometer and analyzed using Flowing software. […]

[3] = test system: Caspase-3; assay: Western blot, caspase-3 level in HepG2 cells; conditions: HepG2, 10.50 µM, 24 h
Protocol: Caspase-3 has a key role in apoptosis initiation and execution[26]^,[27]. The western blot technique was used to investigate the effect of compound 12 l, the most promising member, on the caspase-3 level. HepG2 cells were treated with 12l (10.50 µM) for 24 h.
The western blot technique was applied in accordance with the comprehensive description in Supplementary data[38–40]
as §1
Flow cytometry cell apoptosis analysis was used to investigate the apoptotic effect of the synthesized compounds. […] The stained cells were measured using Epics XL-MCL™ Flow Cytometer and analyzed using Flowing software.
The proteins expression of cleaved caspase‐3, BAX, and Bcl‐2 were determined using Western blot analysis. […]
Then cells were lysed in 250 μL precold lysis buffer (pH 7.4: Tris‐Base [10 mM], NaCl [100 mM], ethylenediaminetetraacetic acid [EDTA, 25 mM], ethylene glycol bis (2‐aminoethyl) tetraacetic acid [EGTA, 25 mM], 1% [v/v] NP‐40, and 1% [v/v] Triton X‐100) supplemented with 1:350 protease:phosphatase inhibitors cocktail (Sigma). […] Total protein concentrations in the supernatant were determined colorimetrically using the Pierce 660 nm Protein Assay method (Thermo Fisher Scientific, Rockford, IL), with BSA as the standard. […]

[4] = HepG2, 24 h, mean ± SEM of two experiments

In the case of Cc1ccc2oc(SCC(=O)Nc3ccc(C(=O)Nc4cccc(Cl)c4)cc3)nc2c1 [Compound 12l, N-(3-Chlorophenyl)-4–(2-((5-methylbenzo[d]oxazol-2-yl)thio)acetamido)benzamide], the IC50 ([1]; MCF7, 24 h, MTT, 24 h treatment, mean of three experiments, read-out: In vitro IC50 MCF-7) is reported as 15.2 ± 1.1 µM, the IC50 ([1]; MCF7, supplement raw data, dose-response curve fit, read-out: LogIC50 best-fit value, MCF-7 (converted)) is reported as 15.2 µM and the “Early apoptotic phase” value ([2]; HepG2, 10.50 µM, 24 h) is reported as 32.45%. For the same molecule, the “Late apoptotic phase” value ([2]; HepG2, 10.50 µM, 24 h) was 2.86%, the “Apoptosis Early (Right Bottom)” value [2, 4] was 32.45 ± 3.13 and the “Apoptosis Late (Right Top)” value [2, 4] was 2.86 ± 0.21. For the same molecule, the “Necrosis (Left Top)” value [2, 4] was 0.14 ± 0.06, the “Viable (Left Bottom)” value ([2]; HepG2, 24 h, mean ± SEM of two experiments, in %) was 64.55 ± 3.43 and the “Protein expression (normalized to β-actin) Caspase-3” value ([3]; control = 1.00) was 2.98 ± 0.13. For the same molecule, the Caspase-3 level increase ([3]; versus control) was 2.98 fold.
